# Values of other authors in patent US9744192B2, “Methods of treating chronic rhinosinusitis” (priority 2015, dated 2017).
# Where two headings read alike, the source gives them in different places.
# Legend:
# [1] = tested on: Candida albicans; settings: for strains with complete growth inhibition: 1% aqueous boric acid
# [2] = tested on: Bacillus shiga-kruse (aka: Shigella dysenteriae); settings: 2-3% aqueous boric acid, agar culture
# [3] = tested on: 17 bacteria and fungi (human pathogens)
# [4] = tested on: 17 bacterial strains including Staphylococcus aureus, Enterococcus faecalis, E. coli, Klebsiella pneumonia and others; settings: 2.5% boric acid
# [5] = aqueous solution, pH=7.4
# [6] = tested on: Saccharomyces cerevisiae cells; settings: living cells
smiles,measurement,setting,value
"OB(O)O [boric acid, Boric acid]",strains with complete growth inhibition,[1]; fluconazole-resistant strains,24 of the 25
same,strains with complete growth inhibition,[1]; fluconazole-susceptible strains,45 of the 46
same,sudden physical membrane damage,[1]; 1% boric acid,No sign of sudden physical membrane damage
same,membrane integrity,[1]; 24 hour exposure to 1% boric acid,decreased only slightly
same,agglutination,[2],marked agglutination
same,integrity of initial bacterial or fungal counts,"[3]; boric acid 1.8-2%, urine samples, up to 24 hours at 24° C.",maintained for all human pathogens studied
same,reversibility of the bacteriostatic effect after dilution into nutrient culture media,[3]; preserved samples diluted out,rapid and complete reversibility
same,tissue irritation or other adverse events,in vivo,little or no evidence
same,absorption across uninjured skin or vaginal epithelium,topical,not significantly absorbed
same,bacterial strains with complete growth inhibition,[4],17 of 17
same,borate B(OH)4− share of equilibrium,[5],1.6%
same,free boric acid B(OH)3 share of equilibrium,[5],98.4%
same,effect on cell morphology,[6],alter the morphology
